# Experimental data from PubChem BioAssay (NCI).
#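 How tested: cells in 96-well plates exposed to compound for 48 hours at five concentrations. The concentration for 50% growth inhibition is given as GI50. The concentration for full growth arrest is given as TGI.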
# Experiments:
# Assay in all cases: inhibition of tumour cell growth, NCI panel, 48 h
# ACHN renal = test system: ACHN renal
# HCT-116 colon = test system: HCT-116 colon
# HL-60(TB) leukemia = test system: HL-60(TB) leukemia
# HOP-92 NSCLC = test system: HOP-92 NSCLC
# NCI-H23 lung = test system: NCI-H23 lung
# NCI-H522 lung = test system: NCI-H522 lung
# RPMI-8226 leukemia = test system: RPMI-8226 leukemia
# SK-MEL-5 melanoma = test system: SK-MEL-5 melanoma
# UACC-257 melanoma = test system: UACC-257 melanoma
# UO-31 renal = test system: UO-31 renal
Structure (SMILES),GI50 (ACHN renal),TGI (ACHN renal),GI50 (HCT-116 colon),TGI (HCT-116 colon),GI50 (HL-60(TB) leukemia),TGI (HL-60(TB) leukemia),GI50 (HOP-92 NSCLC),TGI (HOP-92 NSCLC),GI50 (NCI-H23 lung),TGI (NCI-H23 lung),GI50 (NCI-H522 lung),TGI (NCI-H522 lung),GI50 (RPMI-8226 leukemia),TGI (RPMI-8226 leukemia),GI50 (SK-MEL-5 melanoma),TGI (SK-MEL-5 melanoma),GI50 (UACC-257 melanoma),TGI (UACC-257 melanoma),GI50 (UO-31 renal),TGI (UO-31 renal)
CC(Cl)CC(=O)Nc1ccc2c(c1)oc(=O)c1cc(NC(=O)CC(C)Cl)ccc12 (stereo not given),12.2 µM,31.8 µM,12.4 µM,40 µM,9.03 µM,29.3 µM,2.09 µM,10.7 µM,50 µM,> 100 µM,15.2 µM,36.8 µM,1.46 µM,23.4 µM,11.5 µM,27.9 µM,23.2 µM,76.2 µM,13.3 µM,69.4 µM
O=C(Nc1ccc(-c2nc3ccc(NC(=O)c4ccc(Cl)cc4)cc3[nH]2)cc1)c1ccc(Cl)cc1,8.65 µM,21.1 µM,2.71 µM,10.8 µM,4.12 µM,16.2 µM,2.68 µM,11 µM,4.63 µM,16.4 µM,2.95 µM,9.36 µM,5.77 µM,23 µM,3.53 µM,14.4 µM,11.5 µM,24.1 µM,8.19 µM,20 µM
CCn1cc(C2NC(=O)c3cc(F)ccc3N2)c2cccc(Cl)c21 (stereo not given),0.606 µM,> 100 µM,0.177 µM,> 100 µM,0.121 µM,0.731 µM,> 24.4 µM,> 100 µM,0.508 µM,> 100 µM,0.135 µM,> 32.1 µM,0.359 µM,> 100 µM,0.446 µM,> 100 µM,> 100 µM,> 100 µM,2.88 µM,> 100 µM
N#CC(/C(=N\NC(N)=S)C(=O)NC1C2CC3CC(C2)CC1C3)c1ccc(Cl)cc1 (stereo not given),–,> 100 µM,–,> 100 µM,–,> 100 µM,–,> 100 µM,–,> 100 µM,–,> 100 µM,–,> 100 µM,–,> 100 µM,–,> 100 µM,–,> 100 µM
COCCOC(=O)CCn1cc(F)c(=O)[nH]c1=O,8.67 µg/mL,> 150 µg/mL,4.54 µg/mL,> 150 µg/mL,13.6 µg/mL,> 150 µg/mL,77.6 µg/mL,> 150 µg/mL,17.2 µg/mL,> 150 µg/mL,131 µg/mL,> 150 µg/mL,13.8 µg/mL,> 150 µg/mL,20.4 µg/mL,> 150 µg/mL,26.5 µg/mL,> 150 µg/mL,1.82 µg/mL,> 150 µg/mL
O=C(N/N=C\c1cc(Cl)ccc1O)N/N=C/c1cc(Cl)ccc1O,1.17 µM,> 100 µM,0.565 µM,> 100 µM,6.22 µM,> 100 µM,0.99 µM,9.48 µM,2.34 µM,> 100 µM,0.616 µM,19 µM,2.79 µM,> 100 µM,6.41 µM,> 100 µM,6.6 µM,> 100 µM,0.489 µM,> 100 µM
CN(C)c1ccc(/C=N/Nc2ccc(-c3nc4ccccc4[nH]3)cc2)cc1,8.76 µM,41.7 µM,15.1 µM,> 50 µM,14.6 µM,> 50 µM,12.4 µM,> 50 µM,13.8 µM,45.5 µM,10.3 µM,31.2 µM,4.6 µM,> 50 µM,2.03 µM,9.92 µM,9.81 µM,25.8 µM,7.44 µM,23.8 µM
